In patent EP0434057B1, “Indolocarbazole derivatives, processes for their preparation and their use” (GÖDECKE AKTIENGESELLSCHAFT, priority 1989, dated 1991):
Where two headings read alike, the source gives them in different places.

What was measured:
[1] = biological target: tyrosinspezifischen Kinase (T-Kinase); assay: Inhibition of tyrosine-specific kinase (literature method); format: biochemical; settings: read-out: Inhibierung von Proteinkinasen (IC50, µM) T-Kinase
Excerpt: (§1) Die Bestimmung der Inhibierung von A-, G-, MLC- oder T-Kinase erfolgte nach den in der Literatur beschriebenen Verfahren (Gill, G.N., Walton M., Advances in cyclic nucleotide research, Vol. 10, herausgegeben von G. Brooker und G.A. Robinson, Raven Press, New York, 1979; Eur. J. Biochem. 1986, 158, 203; Biochem. J. 1984, 218, 863; Analyt. Biochem. 1983, 135, 37; Mol. Immunol. 1989, 26, 897).

[2] = biological target: Proteinkinase C (PKC); assay: Enzyme assay: inhibition of protein kinase C activated with phosphatidylserine and diacylglycerol (according to EP-A-0 255 126); format: biochemical
[3] = biological target: Myosin Light Chain Kinase (MLC-Kinase) (Gallus gallus, UniProt P11799); assay: Inhibition of myosin light chain kinase (literature method); format: biochemical; settings: read-out: Inhibierung von Proteinkinasen (IC50, µM) MLC-Kinase
Excerpt: as §1

[4] = biological target: T1, cGMP-abhängigen Proteinkinase (G-Kinase) (Bos taurus, UniProt P00516); assay: Inhibition of cGMP-dependent protein kinase (literature method); format: biochemical; settings: read-out: Inhibierung von Proteinkinasen (IC50, µM) G-Kinase
T1 sequence (P00516 2-671): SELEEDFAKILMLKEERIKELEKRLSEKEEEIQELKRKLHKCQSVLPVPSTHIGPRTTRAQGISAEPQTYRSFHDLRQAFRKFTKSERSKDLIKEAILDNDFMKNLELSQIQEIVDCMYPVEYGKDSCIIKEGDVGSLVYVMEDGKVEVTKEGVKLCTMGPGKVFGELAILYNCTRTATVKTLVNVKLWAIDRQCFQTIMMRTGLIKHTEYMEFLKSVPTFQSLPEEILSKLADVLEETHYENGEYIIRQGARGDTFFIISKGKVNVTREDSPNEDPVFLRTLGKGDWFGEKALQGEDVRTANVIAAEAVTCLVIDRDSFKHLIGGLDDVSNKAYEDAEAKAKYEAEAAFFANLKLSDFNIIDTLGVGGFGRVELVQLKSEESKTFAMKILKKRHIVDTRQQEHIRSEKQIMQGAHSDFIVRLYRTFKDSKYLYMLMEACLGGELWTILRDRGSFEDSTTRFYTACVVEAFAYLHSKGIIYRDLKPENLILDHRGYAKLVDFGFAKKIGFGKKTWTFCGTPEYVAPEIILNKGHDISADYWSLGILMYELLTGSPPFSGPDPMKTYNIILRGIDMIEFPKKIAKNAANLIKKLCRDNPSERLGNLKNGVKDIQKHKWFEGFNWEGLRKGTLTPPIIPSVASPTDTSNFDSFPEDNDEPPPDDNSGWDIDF
Excerpt: as §1

[5] = biological target: tyrosinspezifischen Kinase (T-Kinase); settings: read-out: Inhibierung von Proteinkinasen (IC50, µM) T-Kinase; value marked *: J. Antibiot. 1987, 40, 1782; cited from earlier work

Chain of Myosin Light Chain Kinase (MLC-Kinase) (P11799 935-1906): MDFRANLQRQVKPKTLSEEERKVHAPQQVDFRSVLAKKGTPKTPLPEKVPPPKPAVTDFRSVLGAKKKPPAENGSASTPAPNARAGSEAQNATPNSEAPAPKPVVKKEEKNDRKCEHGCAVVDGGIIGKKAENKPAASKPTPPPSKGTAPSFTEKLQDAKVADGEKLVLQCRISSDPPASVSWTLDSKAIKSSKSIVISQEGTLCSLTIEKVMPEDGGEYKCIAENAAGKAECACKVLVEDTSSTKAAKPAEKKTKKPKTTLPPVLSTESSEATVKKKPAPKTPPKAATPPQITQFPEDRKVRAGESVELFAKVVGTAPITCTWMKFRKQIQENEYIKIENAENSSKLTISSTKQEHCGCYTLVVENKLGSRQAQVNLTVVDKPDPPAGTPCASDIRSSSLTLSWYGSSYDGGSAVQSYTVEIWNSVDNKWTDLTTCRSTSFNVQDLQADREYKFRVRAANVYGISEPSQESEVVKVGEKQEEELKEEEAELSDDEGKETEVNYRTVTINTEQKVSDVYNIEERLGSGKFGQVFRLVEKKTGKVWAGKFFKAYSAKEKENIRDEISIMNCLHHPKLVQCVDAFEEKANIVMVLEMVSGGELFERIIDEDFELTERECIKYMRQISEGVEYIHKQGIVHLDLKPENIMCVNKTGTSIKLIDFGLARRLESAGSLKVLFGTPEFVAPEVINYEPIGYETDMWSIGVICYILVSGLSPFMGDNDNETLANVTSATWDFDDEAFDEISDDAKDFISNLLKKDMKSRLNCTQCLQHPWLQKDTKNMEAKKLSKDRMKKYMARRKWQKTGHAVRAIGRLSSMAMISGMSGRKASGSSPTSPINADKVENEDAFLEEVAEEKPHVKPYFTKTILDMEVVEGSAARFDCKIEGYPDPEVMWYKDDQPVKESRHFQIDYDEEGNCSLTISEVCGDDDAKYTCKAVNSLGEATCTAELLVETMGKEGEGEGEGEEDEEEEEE

Compound | IC50 [1] | IC50 ([2]; PKC activated with Phosphatidylserin and Diacylglycerol, read-out: 50%ige Inhibierung bei einer Konzentration von) | IC50 ([2]; read-out: Inhibierung von Proteinkinasen (IC50, µM) PKC) | IC50 [3] | IC50 [4] | IC50 [5]
Cn1c2ccccc2c2c3c(c4c5ccccc5n(CCC#N)c4c21)CNC3=O [Beispiel 2, 12-(2-Cyanoethyl)-6,7,12,13-tetrahydro-13-methyl-5-oxo-5H-indolo[2,3-a]pyrrolo[3,4-c]carbazol] | 25 µM | 0.02 µM | 0.02 µM | 5.8 µM | 6.2 µM | 
CN[C@@H]1C[C@H]2O[C@@](C)([C@@H]1OC)n1c3ccccc3c3c4c(c5c6ccccc6n2c5c31)C(=O)NC4 [Staurosporin] |  |  |  |  |  | 0.006 µM
